These results are taken from patent US20170304386A1, “METHOD FOR INHIBITING SURVIVAL, TUMORIGENESIS AND METASTASIS OF CANCER CELLS AND/OR CANCER STEM CELLS” (priority 2014, published 2017).

Type in all cases: cell-based, human
Test [1] concerns S727 phosphorylation of STAT3. Kind of test: Western blot analysis of STAT3 S727 phosphorylation in CCS cells. The protocol:
FIGS. 7a-7m show the PP2A regulates STAT3 activation at S727 and mediates suspension survival ability in TICs. […] The results are expressed as mean±SD of three independent experiments. Asterisks indicate significant differences determined by student's t-test. Bar=20 μm.
Cells were lysed and protein was extracted using M-PER (Pierce, Rockford, Ill.) plus protease inhibitor cocktail (Pierce), and the protein concentrations were determined by the BCA assay (Pierce). Aliquots of protein lysates were separated on SDS-10% polyacrylamide gels and transferred onto poly-vinylidenedifluoride (PVDF) membrane, which was blocked with 5% milk (Bio-Rad, Richmond, Calif.) in TBST. The membrane was then hybridized with primary antibodies followed by corresponding secondary antibodies, and then detected using a chemiluminescence assay (Millipore, Billerica, Mass.). Membranes were exposed to X-ray film to visualize the bands (Amersham Pharmacia Biotech, Piscataway, N.J.). Antibodies against pSTAT3 (S727) (1:1000), pSTAT3 (Y705) (1:1000), STAT3 (1:2000), PP2A C subunit (1:2000), pAkt (S473) (1:1000), β-tubulin (1:2000), Flag (1:2000), pAkt (T308) (1:1000), Akt (1:2000), ERK (1:2000), pP38 (T180 and Y182) (1:1000), P38 (1:2000), pJNK (1:1000), and pmTOR (S2448) (1:1000) were purchased from Cell Signaling Technologies. Antibodies against pPP2A (Y307) (1:2000), Oct4 (1:500), Nanog (1:500), Histone H1 (1:1000), and Sox2 (1:500) were purchased from Santa Cruz Biotechnology Inc. Antibodies against pFAK (Y397) (1:1000) were purchased from GeneTex (San Antonio, Tex.). Antibody against Col17a1 was purchased from Abcam. Antibody against Laminin y2 (1:1000) was purchased from Chemicon (Temecula, Calif.). Antibody against cleaved-caspase 3 (1:1000) was purchased from Epitomics (Burlingame, Calif.). Antibody against pERK (1:1000) was purchased from Biosource (Camerillo, Calif.).

For a further test, the system named is laminin 5. Kind of test: Western blot of laminin 5 protein with cycloheximide with or without MG132. As to conditions: TICs with Col17a1 knockdown; 50 μg/ml cycloheximide; 10 μM MG132; 6, 12, 24, 36 hours. The protocol:
FIGS. 5a-5k show the Col XVII-mediated suspension survival ability depends on laminin 5 and FAK activation. FIGS. 5a and 5b show the Bulk cancer cells (Bulk) and spheroid culture-enriched TICs (SPH) were cultured in spheroid condition for 10 h, followed by FIG. 5a (western blot assay), and FIG. 5b (immunofluorescence) followed by examination with a confocal microscope. […] FIGS. 5e-5f show the spheroid cultures of cells overexpressed with control shRNAs (CTR) or different Col17a1 shRNAs, si(1) and si(2) were assayed for mRNA and protein levels (FIG. 5e), and immunostaining (CCS)(FIG. 5f) followed by examination with a confocal microscope. FIG. 5g (top), western blot analysis for spheroid culture-enriched TICs expressing control shRNAs (CTR) or Col17a1 shRNAs, si(1) or si(2), treated with 50 μg/ml cycloheximide in the presence or absence of 10 μM MG132 for 6, 12, 24, and 36 hours. FIG. 5g (bottom), graphical representation of the relative band intensities of laminin 5 protein. […]
Cells were lysed and protein was extracted using M-PER (Pierce, Rockford, Ill.) plus protease inhibitor cocktail (Pierce), and the protein concentrations were determined by the BCA assay (Pierce). […] The membrane was then hybridized with primary antibodies followed by corresponding secondary antibodies, and then detected using a chemiluminescence assay (Millipore, Billerica, Mass.). […]

The next test concerns Col XVII. Kind of test: Immunoblot of Col XVII shedding in A549 spheroid culture. As to conditions: A549 spheroid culture 12 days; PMA 100 nM, 1,10-phenanthroline 20 μM. As to the method: (§1) Knockdown of ADAMS or ADAM10 inhibited shedding of Collagen XVII and reduced laminin-5 expression in A549 cells cultured in spheroid culture.
The lung cancer cell lines A549 and CL1-1 were obtained from the American Type Culture Collection. Cells were grown in Dulbecco's Modified Eagle Medium (DMEM) (Gibco, Grand Island, N.Y.) containing 10 units/ml penicillin, 10 μg/ml streptomycin, 2 mM glutamine, and 10% fetal bovine serum (FBS; Gibco), in a 37° C. humidified atmosphere with 5% CO2. For enrichment of cancer stem-like cells (CSCs) in spheroid culture, lung cancer cells were suspended in tumor sphere medium consisting of serum-free DMEM/F12 (Gibco), N2 supplement (Gibco), human recombinant epidermal growth factor (EGF) (20 ng/ml, PeproTech, Rocky Hill, N.J.), and basic fibroblastic growth factor (bFGF) (10 ng/ml, PeproTech). […] Sphere numbers were counted at day 12 of culture. […]
Cell extracts were prepared with M-PER (Pierce, Rockford, Ill.) plus protease inhibitor cocktail (Halt™; Pierce) and protein concentrations were determined using the bicinchoninic acid (BCA) assay (Pierce). […] Membranes were then probed with the indicated primary antibodies, reacted with the corresponding secondary antibodies, and results detected using a chemiluminescence assay (Millipore, Billerica, Mass.). […]

The test system of a further test is EMT markers. Kind of test: Western blot of Snail and EMT markers in A549 spheroid culture. As to conditions: PMA 100 nM, 1,10-phenanthroline 20 μM. The protocol:
as §1
(§2) The lung cancer cell lines A549 and CL1-1 were obtained from the American Type Culture Collection. Cells were grown in Dulbecco's Modified Eagle Medium (DMEM) (Gibco, Grand Island, N.Y.) containing 10 units/ml penicillin, 10 μg/ml streptomycin, 2 mM glutamine, and 10% fetal bovine serum (FBS; Gibco), in a 37° C. humidified atmosphere with 5% CO2. For enrichment of cancer stem-like cells (CSCs) in spheroid culture, lung cancer cells were suspended in tumor sphere medium consisting of serum-free DMEM/F12 (Gibco), N2 supplement (Gibco), human recombinant epidermal growth factor (EGF) (20 ng/ml, PeproTech, Rocky Hill, N.J.), and basic fibroblastic growth factor (bFGF) (10 ng/ml, PeproTech). Cell colonies >100 μm in diameter and >50% in area showing 3-dimensional structure and blurred cell margins were defined as spheres. Sphere numbers were counted at day 12 of culture. Cells were harvested and protein lysates were collected for further experiments. Treatment reagents included FAK inhibitor (20 μM) (Calbiochem, San Diego, Calif.; Merk, Schwalbach, Germany), LY294002 (10 μM) (Calbiochem), 1,10-phenanthroline (20 μM) (Sigma-Aldrich; St. Louis, Mo.), PMA (100 nM) (Sigma-Aldrich) and Cyclohexamide (50 μg/ml) (Calbiochem).
(§3) Cell extracts were prepared with M-PER (Pierce, Rockford, Ill.) plus protease inhibitor cocktail (Halt™; Pierce) and protein concentrations were determined using the bicinchoninic acid (BCA) assay (Pierce). Aliquots of protein lysates were separated on SDS-10% polyacrylamide gels and transferred to PVDF membrane filters, followed by blocking with 5% blotting grade milk (Bio-Rad, Hercules, Calif.) in TBST (20 mM Tris-HCl [pH 7.6], 137 mM NaCl, 1% Tween 20). Membranes were then probed with the indicated primary antibodies, reacted with the corresponding secondary antibodies, and results detected using a chemiluminescence assay (Millipore, Billerica, Mass.). Membranes were exposed to X-ray film to visualize the bands (Amersham Pharmacia Biotech, Piscataway, N.J.).

In test [2] the test system is A549 cells. Kind of test: Wound healing assay. As to conditions: PMA 100 nM, 1,10-phenanthroline 20 μM. As to the method: as §1
An in vitro model of the ability of A549 and CL1-1 lung cancer cells to migrate in a monolayer culture was used to measure wound healing ability. Lung cancer cells were seeded into 6-well plates and incubated overnight. The cells were disrupted by scraping them with a […] pipette tip. […] The percent of wounded area filled was calculated as follows: [(mean wound width-mean remaining width)/mean wound width]×100(%).

In a further test the test system is laminin-5. As to the kind of experiment: Western blot of laminin-5 level and degradation in A549 spheroid culture. As to conditions: for level of laminin 5: A549 spheroid culture 12 days, PMA 100 nM, 1,10-phenanthroline 20 μM; for laminin 5 protein half-life / degradation: A549 suspension cells, spheroid medium containing cycloheximide 50 μg/ml. As to the method: as §1, §2, §3

Test [3] relates to A549 cells. Kind of test: Migration assay (Boyden chambers). As to conditions: PMA 100 nM, 1,10-phenanthroline 20 μM. As to the method: as §1
Cell migration assay was performed using Boyden chambers. At the end of the assay, cells in the upper chamber and on the upper filter surface were removed, whereas cells on the lower filter surface were fixed with ethanol and stained with Giemsa (Sigma-Aldrich). The number of migrating cells was determined by counting cells in 10 random fields/filter at 200× magnification. Data were calculated as a percentage of migrated cells in the absence of chemoattractant or adherent culture, which was considered as 100%. All experiments were performed in triplicate.

Test [4] deals with A549 cells. As to the kind of experiment: Invasion assay (Matrigel Invasion Chambers). As to conditions: PMA 100 nM, 1,10-phenanthroline 20 μM. The protocol: as §1
Cell invasion assays were performed using 24-well BD Biocoat Matrigel Invasion Chambers (Becton, Dickinson and Company, San Jose, Calif.) according to the manufacturer's instructions. In brief, cells were seeded into upper inserts (2.5×10^4 cells/insert) in DMEM supplemented with 0.1% bovine serum albumin (BSA). Outer wells were filled with DMEM containing 10% FBS as the chemoattractant. After 24 hours of incubation, the membranes with invaded cells were stained with Giemsa (Sigma), washed and mounted on slides. The entire membrane with invading cells was counted by light microscopy. Data are expressed as the number of invaded cells/well. Each assay was performed in triplicate and repeated at least twice.

For test [5], the system named is spheres formed by HT29 spheroid culture. As to the kind of experiment: Live/Dead analysis of spheres pre-treated with enzymes, then suspension culture. As to conditions: pre-treatment of spheres with enzyme, then suspension culture 24 hours.
Setting [6] is: CCS bulk cancer cells, 0, 0.1, 0.5, 1 nM OA for 1 hour or 0, 5, 10, 15 nM CA for 30 min.

“Also recorded” adds a separate entry of the source. Residues, ends and D or L forms follow the SMILES beside them. *: point of attachment. Cbz = O=C(OCc1ccccc1)*

Take `C=C1[C@@H](O)[C@@H]2O[C@]3(CC[C@H](/C=C/[C@@H](C)[C@@H]4CC(C)=C[C@@]5(O[C@H](C[C@@](C)(O)C(=O)O)CC[C@H]5O)O4)O3)CC[C@H]2O[C@@H]1[C@@H](O)C[C@H](C)[C@H]1O[C@@]2(CCCCO2)CC[C@H]1C` [okadaic acid]: in test [1] (setting [6]), the “S727 phosphorylation of STAT3” value is “increased S727 phosphorylation of STAT3 in a dose-dependent manner”.
For `CC(C)C[C@@H](C=O)NC(=O)[C@H](CC(C)C)NC(=O)[C@H](CC(C)C)NC(=O)OCc1ccccc1` [MG132] (Cbz-Leu-Leu-Leu-aldehyde), the “laminin 5 protein level” value with laminin 5 is recorded as “restored”.
Turning to `c1cnc2c(c1)ccc1cccnc12` [1,10-phenanthroline], in the test on Col XVII, the “shedding of COL XVII” value is “decreased”. In addition, in the test with EMT markers, the EMT markers result is “reduced”, the “expression of Snail” value is “reduced”, the “expression of epithelial marker E-cadherin” value is reported as “increased” and the “expression of mesenchymal markers” value is “decreased”. For the same compound, in the test with A549 cells [2], the wound closure entry is “reduced”. In the test on laminin-5, the “level of laminin 5” value is reported as “negatively” and the “laminin 5 protein half-life / degradation” value is “degraded faster”. Further, in the test with A549 cells [3], the cell migration entry is on record as “reduced”. In the test with A549 cells [4], the invasion result is on record as “reduced”.
As to `COC[C@@H]([C@H](O)[C@H](O)C(=O)NCC[C@H](C)c1nc(/C=C/C[C@@H]2O[C@]3(C[C@@H](O)[C@@H]2C)O[C@H]([C@H](C[C@H](O)[C@H](C)[C@H](O)[C@H](C)/C=C(C)/C(C)=C/C=C/C(C)=C\C#N)OC)[C@H](OP(=O)(O)O)C3(C)C)co1)N(C)C` [calyculin A], the “S727 phosphorylation of STAT3” value in [1] (setting [6]) is reported as “increased S727 phosphorylation of STAT3 in a dose-dependent manner”.
Take `CCCCCCCCCCCCCC=CC(O)C(CO)NC(=O)CCCCC` (stereo not shown) [ceramide C6]: the “S727 phosphorylation of STAT3” value in test [1] (CCS spheroid culture-enriched TICs, 50 nM ceramide C6 for 24 hours) is on record as “reduced S727 phosphorylation of STAT3”.
Regarding chymotrypsin, in [5], the “cell death in suspension culture (Live/Dead analysis)” value was “cause cell death”.
For the compound `CCCCCCCCCCCCCC(=O)O[C@@H]1[C@@H](C)[C@@]2(O)[C@@H](C=C(CO)C[C@]3(O)C(=O)C(C)=C[C@@H]23)[C@@H]2C(C)(C)[C@]12OC(C)=O` [PMA], the “shedding of COL XVII” value in the test on Col XVII is reported as “increased; also recorded: stimulated”. In the test with EMT markers, the EMT markers entry is recorded as “activated”, the “expression of Snail” value is given as “enhanced”, the “expression of epithelial marker E-cadherin” value is listed as “decreased” and the “expression of mesenchymal markers” value was “increased”. Also, in the test on A549 cells [2], the wound closure result is “enhanced”. In the test with laminin-5, the “level of laminin 5” value is recorded as “positively; also recorded: enhanced” and the “laminin 5 protein half-life / degradation” value is “longer half-life; also recorded: decreased degradation”. For the same compound, the cell migration result with A549 cells [3] is given as “enhanced”. Further, in the test with A549 cells [4], the invasion result is on record as “enhanced”.
